Results on 4 compounds are retold here after US20090281166A1, “Treatment of Cancer by Inhibition of HSP27” (THE UNIVERSITY OF BRITISH COLUMBIA, priority 2008, published 2009).

Data set [1] relates to Akt. In words: Western blot after siAkt or GSK690693C treatment in LNCaP cells. Type of data set: cell-based, human. As to the method:
Twenty-four hours after culturing in 10 cm dishes at 7×10^5 cells per dish, Hsp27 siRNA (siHsp27) or scrambled siRNA (Scr) duplexes were transfected into cells. Briefly, the RNA duplex was diluted in Opti-MEN® serum-free medium and Oligofectamin (Invitrogen-Life Technologies). After 20 min, cells were transfected at 37? for 4-6 h and then were placed in standard medium. Forty-eight hours after transfection, cells were harvested and were analyzed in each experiment. To knockdown Akt, Akt1 siRNA (siAkt) duplexes (Cell signaling) were used. Twenty-four hours after transfection for 24 h, cells were harvested and then were analyzed as well. An siRNA duplex corresponding to the human Hsp27 site (sequence of one strand 5′-[…]-3′, SEQ ID NO: 2; Dharmacon, Lafayette, Colo.) was used. […]
Proteins (20-40 μg/lane) extracted in RIPA buffer from cells, were electrophoresed in SDS-polyacrylamide gels (SDS/PAGE) and transferred to PDVF membranes (Milipore, Bedford, Mass.) by a wet transfer method. […] Bands were detected by using an enhanced chemiluminescence Western blotting analysis system (Amersham Life Science, Arlington Heights, Ill.).
LNCaPHsp27 and LNCaP with empty vector (LNCaPmock) cells were assessed 24 h after culture. Cell lysates were collected 24 hours after culture and bands were detected with the indicated antibodies by Western blot assay. […]

The subject of data set [2] is PC-3 cells. The data set is described as follows: Combination treatment with siHsp27 and LY-294002 in PC-3 cells. It counts as cell-based, human. As to the method:
LY-294002 (2-(4-morpholinyl)-8-phenyl-4H-1-benzopyran-4-one) is a selective phosphatidylinositol 3-kinase (PI3K) inhibitor. Combination treatment with siHsp27 and LY-294002 treatment was assessed in PC-3 cells.

Data set [3] relates to hsp27. As to conditions: Tanaka et al., Int J Gynecol Cancer 2004; cited from earlier work.
The test system of data set [4] is Hsp27. To be noted: preclinical studies, cited from earlier work.

For `CCn1c(-c2nonc2N)nc2c(C#CC(C)(C)O)ncc(OC[C@H]3CCCNC3)c21` [GSK690693C], in data set [1], the “phospho-Akt level (Western blot)” value is “up-regulation of phospho-Akt”; the “phospho-GSK-3B and phospho-PEA15 levels (Western blot)” value is “dose-dependent decrease of phospho-GSK-3B and phospho-PEA15”.
For the compound `O=c1cc(N2CCOCC2)oc2c(-c3ccccc3)cccc12` [LY-294002, 2-(4-morpholinyl)-8-phenyl-4H-1-benzopyran-4-one], the PTEN expression entry in data set [2] is “reduced PTEN expression”. Further, the “effect on growth inhibition by Hsp27 knockdown” value in data set [2] (combination with siHsp27) is on record as “reduced the growth inhibitory effect by Hsp27 knockdown in dose-dependent manner”.
As for `CC(=O)O[C@H]1C(=O)[C@@]2(C)[C@H]([C@H](OC(=O)c3ccccc3)[C@]3(O)C[C@H](OC(=O)[C@H](O)[C@@H](NC(=O)c4ccccc4)c4ccccc4)C(C)=C1C3(C)C)[C@]1(OC(C)=O)CO[C@@H]1C[C@@H]2O` [Paclitaxel], the hsp27 expression entry in data set [3] was “inhibitor of hsp27 expression”.
Consider “OGX-427: antisense oligonucleotide targeting hsp27, gggacgcggc gctcggtcat, SEQ ID No. 1, described in U.S. Pat. No. 7,101,991 (antisense GGGACGCGGCGCTCGGTCAT; listed as DNA, chemistry not given here; listed as Homo sapiens)”, for which the chemosensitization result in data set [4] (combination with cytotoxic drugs) is “acts as a chemosensitizer in combination with several cytotoxic drugs including docetaxel”. In data set [4] (single agent), the anti-tumor activity entry is on record as “has single agent anti-tumor activity”. In data set [4], the “apoptosis in human cancer cell lines” value was “induces apoptosis in several human cancer cell lines” and the “levels of Hsp27” value was “significantly decreases levels of Hsp27”.
